# Reference: PubChem BioAssay AID2060599 (Molecular Pharmacology Branch, DTP, NCI, 2025)
# Values joined by “and” are separate entries in the source; they are usually repeats but may differ in a detail not shown here. Identical values can stand only once.
# Test system: 817829-284-R-J1-PDC complex spheroids, viability
# Test: Anticancer human tumor 817829-284-R-J1-PDC patient-derived colon adenocarcinoma cell line growth inhibition [CLK]
# Conditions: for viability, T/C: stronger effect = lower value
# Procedure, shortened: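 Patient-derived tumor cells grown as complex spheroids with HUVEC endothelial cells and mesenchymal stem cells, treated with drug combinations. Concentrations descend in half-log steps from near clinical Cmax, or from 10 microM if Cmax unknown.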
# [1] = curve of first compound, second compound 0.0316 µM
# [2] = curve of first compound, second compound 0.1 µM
# [3] = curve of first compound, second compound 0.316 µM
# [4] = curve of first compound, second compound 1 µM
# [5] = curve of first compound, second compound 3.16 µM
# [6] = curve of first compound, second compound 10 µM
# [7] = second compound 0.0316 µM, first compound 0.000316 µM
# [8] = second compound 0.0316 µM, first compound 0.001 µM
# [9] = second compound 0.0316 µM, first compound 0.00316 µM
# [10] = second compound 0.0316 µM, first compound 0.01 µM
# [11] = second compound 0.0316 µM, first compound 0.0316 µM
# [12] = second compound 0.0316 µM, first compound 0.1 µM
# [13] = second compound 0.1 µM, first compound 0.000316 µM
# [14] = second compound 0.1 µM, first compound 0.001 µM
# [15] = second compound 0.1 µM, first compound 0.00316 µM
# [16] = second compound 0.1 µM, first compound 0.01 µM
# [17] = second compound 0.1 µM, first compound 0.0316 µM
# [18] = second compound 0.1 µM, first compound 0.1 µM
# [19] = second compound 0.316 µM, first compound 0.000316 µM
# [20] = second compound 0.316 µM, first compound 0.001 µM
# [21] = second compound 0.316 µM, first compound 0.00316 µM
# [22] = second compound 0.316 µM, first compound 0.01 µM
# [23] = second compound 0.316 µM, first compound 0.0316 µM
# [24] = second compound 0.316 µM, first compound 0.1 µM
# [25] = second compound 1 µM, first compound 0.000316 µM
# [26] = second compound 1 µM, first compound 0.001 µM
# [27] = second compound 1 µM, first compound 0.00316 µM
# [28] = second compound 1 µM, first compound 0.01 µM
# [29] = second compound 1 µM, first compound 0.0316 µM
# [30] = second compound 1 µM, first compound 0.1 µM
# [31] = second compound 3.16 µM, first compound 0.000316 µM
# [32] = second compound 3.16 µM, first compound 0.001 µM
# [33] = second compound 3.16 µM, first compound 0.00316 µM
# [34] = second compound 3.16 µM, first compound 0.01 µM
# [35] = second compound 3.16 µM, first compound 0.0316 µM
# [36] = second compound 3.16 µM, first compound 0.1 µM
# [37] = second compound 10 µM, first compound 0.000316 µM
# [38] = second compound 10 µM, first compound 0.001 µM
# [39] = second compound 10 µM, first compound 0.00316 µM
# [40] = second compound 10 µM, first compound 0.01 µM
# [41] = second compound 10 µM, first compound 0.0316 µM
# [42] = second compound 10 µM, first compound 0.1 µM
# [43] = second compound 0.0316 µM, first compound 0.316 µM
# [44] = second compound 0.0316 µM, first compound 1 µM
# [45] = second compound 0.0316 µM, first compound 3.16 µM
# [46] = second compound 0.0316 µM, first compound 10 µM
# [47] = second compound 0.1 µM, first compound 0.316 µM
# [48] = second compound 0.1 µM, first compound 1 µM
# [49] = second compound 0.1 µM, first compound 3.16 µM
# [50] = second compound 0.1 µM, first compound 10 µM
# [51] = second compound 0.316 µM, first compound 0.316 µM
# [52] = second compound 0.316 µM, first compound 1 µM
# [53] = second compound 0.316 µM, first compound 3.16 µM
# [54] = second compound 0.316 µM, first compound 10 µM
# [55] = second compound 1 µM, first compound 0.316 µM
# [56] = second compound 1 µM, first compound 1 µM
# [57] = second compound 1 µM, first compound 3.16 µM
# [58] = second compound 1 µM, first compound 10 µM
# [59] = second compound 3.16 µM, first compound 0.316 µM
# [60] = second compound 3.16 µM, first compound 1 µM
# [61] = second compound 3.16 µM, first compound 3.16 µM
# [62] = second compound 3.16 µM, first compound 10 µM
# [63] = second compound 10 µM, first compound 0.316 µM
# [64] = second compound 10 µM, first compound 1 µM
# [65] = second compound 10 µM, first compound 3.16 µM
# [66] = second compound 10 µM, first compound 10 µM
# 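Further: spheroids exposed to the agents for seven days before readout.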
smiles,measurement,setting,value
Cn1ncnc1[C@H]1c2n[nH]c(=O)c3cc(F)cc(c23)N[C@@H]1c1ccc(F)cc1 + CN1CCN(c2cc(C(=O)Nc3cc4cc(-c5cnn(C)c5)ccc4cn3)ccn2)CC1,IC50,[1],2.58 nM
same,IC50,[2],< 0.316 nM
same,IC50,[3],< 0.316 nM
same,IC50,[4],< 0.316 nM
same,IC50,[5],< 0.316 nM
same,IC50,[6],< 0.316 nM
same,"viability, T/C",[7],60.1%
same,"viability, T/C",[8],54.6%
same,"viability, T/C",[9],47.3%
same,"viability, T/C",[10],43.5%
same,"viability, T/C",[11],32.6%
same,"viability, T/C",[12],24.1%
same,"viability, T/C",[13],13.6%
same,"viability, T/C",[14],14%
same,"viability, T/C",[15],15.3%
same,"viability, T/C",[16],14%
same,"viability, T/C",[17],15.8%
same,"viability, T/C",[18],14.7%
same,"viability, T/C",[19],1.91%
same,"viability, T/C",[20],2.09%
same,"viability, T/C",[21],2.16%
same,"viability, T/C",[22],1.96%
same,"viability, T/C",[23],1.91%
same,"viability, T/C",[24],1.89%
same,"viability, T/C",[25],0.11%
same,"viability, T/C",[26],0.08%
same,"viability, T/C",[27],0.09%
same,"viability, T/C",[28],0.09%
same,"viability, T/C",[29],0.08%
same,"viability, T/C",[30],0.09%
same,"viability, T/C",[31],0.1%
same,"viability, T/C",[32],0.11%
same,"viability, T/C",[33],0.14%
same,"viability, T/C",[34],0.1%
same,"viability, T/C",[35],0.15%
same,"viability, T/C",[36],0.11%
same,"viability, T/C",[37],0.04%
same,"viability, T/C",[38],0.05%
same,"viability, T/C",[39],0.08%
same,"viability, T/C",[40],0.06%
same,"viability, T/C",[41],0.07%
same,"viability, T/C",[42],0.09%
Cn1ncnc1[C@H]1c2n[nH]c(=O)c3cc(F)cc(c23)N[C@@H]1c1ccc(F)cc1 + CNC(=O)c1ccc(Nc2nc(OC3CCCC3)c3c(-c4ccc5nc(C)oc5c4)c[nH]c3n2)c(OC)c1,IC50,[1],< 0.316 nM
same,IC50,[2],< 0.316 nM
same,IC50,[3],< 0.316 nM
same,IC50,[4],< 0.316 nM
same,IC50,[5],< 0.316 nM
same,IC50,[6],< 0.316 nM
same,"viability, T/C",[7],26.6%
same,"viability, T/C",[8],36.8%
same,"viability, T/C",[9],27.3%
same,"viability, T/C",[10],31.1%
same,"viability, T/C",[11],25.3%
same,"viability, T/C",[12],23.4%
same,"viability, T/C",[13],20.5%
same,"viability, T/C",[14],21.1%
same,"viability, T/C",[15],24.7%
same,"viability, T/C",[16],23.5%
same,"viability, T/C",[17],22.3%
same,"viability, T/C",[18],18.2%
same,"viability, T/C",[19],24.1%
same,"viability, T/C",[20],17.5%
same,"viability, T/C",[21],20.2%
same,"viability, T/C",[22],21.6%
same,"viability, T/C",[23],18.6%
same,"viability, T/C",[24],15.3%
same,"viability, T/C",[25],18.1%
same,"viability, T/C",[26],20.1%
same,"viability, T/C",[27],14.9%
same,"viability, T/C",[28],17.3%
same,"viability, T/C",[29],22%
same,"viability, T/C",[30],12.1%
same,"viability, T/C",[31],24.5%
same,"viability, T/C",[32],19.9%
same,"viability, T/C",[33],27.6%
same,"viability, T/C",[34],14.3%
same,"viability, T/C",[35],16.7%
same,"viability, T/C",[36],15.8%
same,"viability, T/C",[37],16.8%
same,"viability, T/C",[38],13.4%
same,"viability, T/C",[39],21.9%
same,"viability, T/C",[40],18.4%
same,"viability, T/C",[41],16%
same,"viability, T/C",[42],18.1%
COC1C=CCC(C)C(C)S(=O)(=O)NC(=O)c2ccc3c(c2)N(CC2CCC21)CC1(CCCc2cc(Cl)ccc21)CO3 (stereo not given) + CNC(=O)c1ccc(Nc2nc(OC3CCCC3)c3c(-c4ccc5nc(C)oc5c4)c[nH]c3n2)c(OC)c1,IC50,[1],< 31.6 nM
same,IC50,[2],< 31.6 nM
same,IC50,[3],< 31.6 nM
same,IC50,[4],< 31.6 nM
same,IC50,[5],< 31.6 nM
same,IC50,[6],< 31.6 nM
same,"viability, T/C",[11],31.3%
same,"viability, T/C",[12],51.1%
same,"viability, T/C",[43],31.1%
same,"viability, T/C",[44],47.8%
same,"viability, T/C",[45],45.3%
same,"viability, T/C",[46],4.06%
same,"viability, T/C",[17],27.3%
same,"viability, T/C",[18],26.5%
same,"viability, T/C",[47],18.7%
same,"viability, T/C",[48],16.1%
same,"viability, T/C",[49],7.61%
same,"viability, T/C",[50],4.67%
same,"viability, T/C",[23],21.2%
same,"viability, T/C",[24],31.2%
same,"viability, T/C",[51],22.6%
same,"viability, T/C",[52],12.6%
same,"viability, T/C",[53],6.09%
same,"viability, T/C",[54],4.97%
same,"viability, T/C",[29],19.7%
same,"viability, T/C",[30],23.3%
same,"viability, T/C",[55],19.9%
same,"viability, T/C",[56],17.6%
same,"viability, T/C",[57],6.44%
same,"viability, T/C",[58],16%
same,"viability, T/C",[35],19.7%
same,"viability, T/C",[36],22.5%
same,"viability, T/C",[59],21.7%
same,"viability, T/C",[60],17.4%
same,"viability, T/C",[61],7.34%
same,"viability, T/C",[62],4.74%
same,"viability, T/C",[41],27.4%
same,"viability, T/C",[42],23.8%
same,"viability, T/C",[63],19.8%
same,"viability, T/C",[64],13.2%
same,"viability, T/C",[65],7.33%
same,"viability, T/C",[66],3.62%
Nc1ccn(C2OC(CO)C(O)C2(F)F)c(=O)n1 (stereo not given) + CNC(=O)c1ccc(Nc2nc(OC3CCCC3)c3c(-c4ccc5nc(C)oc5c4)c[nH]c3n2)c(OC)c1,IC50,[1],< 31.6 nM
same,IC50,[2],< 31.6 nM
same,IC50,[3],< 31.6 nM
same,IC50,[4],< 31.6 nM
same,IC50,[5],< 31.6 nM
same,IC50,[6],< 31.6 nM
same,"viability, T/C",[11],7.4%
same,"viability, T/C",[12],6.76%
same,"viability, T/C",[43],7.11%
same,"viability, T/C",[44],7.29%
same,"viability, T/C",[45],5.09%
same,"viability, T/C",[46],3.92%
same,"viability, T/C",[17],8.05%
same,"viability, T/C",[18],6.31%
same,"viability, T/C",[47],5.97%
same,"viability, T/C",[48],5.9%
same,"viability, T/C",[49],5.26%
same,"viability, T/C",[50],3.21%
same,"viability, T/C",[23],8.92%
same,"viability, T/C",[24],6.1%
same,"viability, T/C",[51],7.05%
same,"viability, T/C",[52],4.87%
same,"viability, T/C",[53],4.82%
same,"viability, T/C",[54],2.7%
same,"viability, T/C",[29],6.66%
same,"viability, T/C",[30],4.92%
same,"viability, T/C",[55],5.51%
same,"viability, T/C",[56],5.11%
same,"viability, T/C",[57],3.64%
same,"viability, T/C",[58],2.55%
same,"viability, T/C",[35],6.07%
same,"viability, T/C",[36],5.26%
same,"viability, T/C",[59],4.97%
same,"viability, T/C",[60],4.56%
same,"viability, T/C",[61],3.52%
same,"viability, T/C",[62],3.21%
same,"viability, T/C",[41],7.94%
same,"viability, T/C",[42],5.03%
same,"viability, T/C",[63],4.94%
same,"viability, T/C",[64],4.81%
same,"viability, T/C",[65],4.26%
same,"viability, T/C",[66],2.75%
COC1C=CCC(C)C(C)S(=O)(=O)NC(=O)c2ccc3c(c2)N(CC2CCC21)CC1(CCCc2cc(Cl)ccc21)CO3 (stereo not given),"viability, T/C",compound 0.0316 µM,125% and 85.6%
same,"viability, T/C",compound 0.1 µM,98.4% and 97.6%
same,"viability, T/C",compound 0.316 µM,90.7% and 66.9%
same,"viability, T/C",compound 1 µM,91.7% and 93.4%
same,"viability, T/C",compound 3.16 µM,65.8% and 79%
same,"viability, T/C",compound 10 µM,8.51% and 6.66%
same,IC50,curve of compound,4090 nM and 5030 nM
